The values that follow come from patent publication US20250312323A1 (Cavion, Inc., priority 2018, published 2025).

Series [1] is classed as in vivo. Particulars: rat NOAEL 300 mg/kg.
Series [2] is classed as in vivo. The conditions noted are these: dog NOAEL 30 mg/kg.
A short description of series [3]: Single-dose crossover pharmacokinetics of IR, MR1 and MR2 capsules (8 mg). The conditions noted are these: plasma, following a single 8 mg dose of IR CX-8998. Type of series: in vivo, human. Set-up: AUC72hr: unit not given beside the values.
Series [4] relates to harmaline-induced tremor model in rats. The conditions noted are these: 3 ascending doses per os; cited from earlier work.

Several values for one entry are separate records, joined by “and”; a condition that tells them apart may be missing. Equal entries are not always repeated. Where two headings read alike, the source gives them in different places.

Broadly, the Cmax is the highest concentration seen after dosing. With `C=C(C)c1ccc(CC(=O)N[C@H](C)c2ccc(OCC(F)(F)F)cn2)cc1` [M01], the “Total safety margin, AUC24 hr (animal AUC / human estimated AUC at steady state, 10 mg BID)” value was 13 fold in series [1] (Day 90, female); 6.8 fold in series [1] (Day 90, male); 5.6 fold in series [2] (Day 90, female); 6.5 fold in series [2] (Day 90, male). Also, the “Total safety margin, Css (animal Cmax / human estimated Css at steady state, 10 mg BID)” value was 21 fold in series [1] (Day 90, female); 13 fold in series [1] (Day 90, male); 8 fold and 8.0 fold in series [2] (Day 90, female); 10 fold in series [2] (Day 90, male). Besides, in series [3], the AUC72hr is recorded as 6876. Further, the highest level in series [3] (Cmax) was 124 nM.

`C[C@@H](NC(=O)Cc1ccc(C(C)(C)O)cc1)c1ccc(OCC(F)(F)F)cn1` [M02] registered a Cmax in series [3] of 122 nM.

Take `CC1(C)C[C@@H](CN2CCC(F)(CNC(=O)c3cc(Cl)cc(Cl)c3)CC2)CCO1` [TTA-P2]: in series [4], the harmaline-induced tremor result is on record as “dose-dependent response” and the “physiologic tremor before administration of harmaline” value is given as “dose-dependent response to a reduction in physiologic tremor”.
